Data as given in ChEMBL document CHEMBL1129064, “Design and synthesis of 2',3'-dideoxy-2',3'-didehydro-beta-L-cytidine (beta-L-d4C) and 2',3'-dideoxy 2',3'-didehydro-beta-L-5-fluorocytidine (beta-L-Fd4C), two exceptionally potent inhibitors of human hepatitis B virus (HBV) and potent inhibitors of human immunodeficiency virus (HIV) in vitro” (1996).

Key:
Type in all cases: functional
Settings in all cases: Homo sapiens, read-out: ED50 (the source's name)
CCRF-CEM [1] = experiment: In vitro concentration required to inhibit 50% of CEM cell growth
CCRF-CEM [2] = experiment: In vitro concentration required to decrease 50% of mitochondrial DNA content in CEM cells
MT2 = experiment: Concentration required to inhibit 50% of HIV activity in MT-2 cells
HepG2 [3] = experiment: Concentration required to inhibit 50% of extracellular circular replication of HBV DNA using 2215 cell line
HepG2 [4] = experiment: Concentration required to inhibit 50% of intracellular circular replication of HBV DNA using 2215 cell line

Row | EC50 (CCRF-CEM [1]) [µM] | EC50 (CCRF-CEM [2]) [µM] | EC50 (MT2) [µM] | EC50 (HepG2 [3]) [µM] | EC50 (HepG2 [4]) [µM] | SMILES
1 | 50 | > 50 | 2 | 0.017 | 0.03 | Nc1nc(=O)n([C@@H]2CS[C@H](CO)O2)cc1F [EMTRICITABINE]
2 | 7 | > 100 | 0.09 | 0.002 | 0.002 | Nc1nc(=O)n([C@@H]2C=C[C@H](CO)O2)cc1F [ELVUCITABINE]

More lines, now with the values behind:

Row | SMILES | EC50 (CCRF-CEM [1]) [µM] | EC50 (CCRF-CEM [2]) [µM] | EC50 (MT2) [µM] | EC50 (HepG2 [3]) [µM] | EC50 (HepG2 [4]) [µM]
3 | Nc1ccn([C@@H]2C=C[C@H](CO)O2)c(=O)n1 | 22 | 2 | 0.7 | 3 | 
4 | Nc1nc(=O)n([C@@H]2CC[C@H](CO)O2)cc1F | 67 | > 100 | 0.5 | 0.055 | 0.036
5 | Nc1ccn([C@H]2C=C[C@@H](CO)O2)c(=O)n1 | 20 | > 20 | 1 | 0.01 | 0.008
6 | Nc1ccn([C@@H]2CC[C@H](CO)O2)c(=O)n1 | 10 | 0.022 | 1.5 | 5.2 | 6.2
